Assays:
[1] = system: metastatic breast cancer cell lines (MDA-MB-231); set-up: method as in PMID 21158420; conditions: cited from earlier work
[2] = LogD, octanol:PBS 1:1 at pH 7.4 (LC-MS/MS); format: physicochemical; conditions: octanol:PBS 1:1 at pH 7.4, 2 h at room temperature, triplicate
Method: To determine compound LogD, 10 mM of the compound 44 in DMSO was diluted 50-fold in a mixture of 1:1 octanol:PBS at pH 7.4. The mixture was gently shaken for 2 h at room temperature. Each sample was then diluted 50-fold in MeOH before LC-MS/MS analysis. For each compound, the test was performed in triplicate. LogD was determined as the logarithm of the ratio of product concentrations in octanol and PBS, respectively, determined by mass signals.

[3] = Aqueous solubility in PBS at pH 7.4 (LC-MS/MS, AUC PBS/AUC MeOH x 200); format: physicochemical; conditions: aqueous buffer, kinetic from dmso stock; PBS at pH 7.4, 24 h shaking at room temperature, triplicate
Method: To determine compound solubility, 10 mM of the compound 44 in DMSO was diluted 50-fold either in PBS at pH 7.4 or in organic MeOH solvent in PP tubes (n = 3 for PBS and […]). The tubes were gently shaken for 24 h at room temperature. Then, the three PBS tubes and three of the six methanol tubes were centrifuged for 5 min at 4000 rpm and filtered over 0.45 μm filters (Millex-LH Millipore). The sample was diluted 50-fold in MeOH before LC-MS/MS analysis. The test was performed in triplicate. The solubility was determined by the following ratio: (AUCPBS/AUCMeOH) × 200.

SMILES | activity against the proliferation of metastatic breast cancer cell lines [1] | logD at 2 h [2] | solubility at 24 h [3] [µM]
C=C1CCC2C(C)(C)CCCC23C(=O)OCC13 (stereo not drawn) [Antrocin] | significant activity |  | 
CC(C)[C@H]1CO[C@]23CCNC[C@H]2CCC(=O)N13 [Compound 44, (3S,7aR,11aR)-3-isopropyl-3,6,7,7a,8,9,10,11-octahydro-2H-oxazolo[2,3-j][1,6]naphthyridin-5-one;formic acid] |  | -1.72 | > 200

Source: publication PMC10054226, “Rapid and Efficient Access to Novel Bio-Inspired 3-Dimensional Tricyclic SpiroLactams as Privileged Structures via Meyers’ Lactamization” (Pharmaceuticals, 2023)
